Measured values reported in PMC6787163, “Systematic Dual Targeting of Dendritic Cell C-Type Lectin Receptor DC-SIGN and TLR7 Using a Trifunctional Mannosylated Antigen” (Frontiers in Chemistry, 2019).

Tests used:
DC-SIGN S-ECD = molecular target: T1, DC-SIGN S-ECD (Homo sapiens, UniProt Q9NNX6); assay: SPR direct interaction assay on oriented DC-SIGN S-ECD surface; format: binding; details: for Kd: SPR direct interaction, oriented tetrameric DC-SIGN ECD surface, apparent Kd, read-out: Kdapp
T1 construct: The ECD of DC-SIGN (residues 66–404) was overexpressed and purified as previously described; made in house
T1 sequence (Q9NNX6 66-404): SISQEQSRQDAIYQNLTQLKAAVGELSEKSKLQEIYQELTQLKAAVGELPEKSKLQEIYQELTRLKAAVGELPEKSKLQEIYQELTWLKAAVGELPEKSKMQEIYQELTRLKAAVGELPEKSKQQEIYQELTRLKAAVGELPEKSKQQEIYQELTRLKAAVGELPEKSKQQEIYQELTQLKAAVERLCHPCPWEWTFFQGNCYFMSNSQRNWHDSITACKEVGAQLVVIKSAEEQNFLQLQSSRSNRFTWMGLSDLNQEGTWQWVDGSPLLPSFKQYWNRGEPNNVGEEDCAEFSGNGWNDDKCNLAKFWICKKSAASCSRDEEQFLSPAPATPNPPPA
Protocol: The affinity of the clusters for the extracellular domain (ECD) of the DC-SIGN receptor (DC-SIGN ECD) was estimated via surface plasmon resonance (SPR) assays (Tabarani et al., [2009]). The apparent Kd was calculated in direct interaction mode using a surface functionalized in an oriented manner with DC-SIGN ECD. In this assay, tetrameric DC-SIGN ECD is attached to the surface of the sensor chip via the N-terminus of its neck oligomerization domain, thus presenting its four carbohydrate recognition domains toward the solvent, realistically mimicking the presentation of the receptor on cell surface (Porkolab et al., [2019]). For some of the low affinity ligands, in the mM range, it was not possible to determine their affinity with this assay, and therefore a competition experiment was performed providing IC50 values (Timpano et al., [2008]) (Figure 3A). […] When comparing equivalent clusters, the α1,2-di-mannoside (B series) bound with the highest affinity (Figure 3A). […] A potential explanation for this effect could be that the spacing of clusters is more important for the larger tri-mannosides.
The direct interaction experiments were executed on a T200 Biacore with a CM3 series S sensor chip. Contrary to the competition assay described above, in this test, DC-SIGN ECD used harbors a StreptagII in its N-terminus (DC-SIGN S-ECD) to allow its capture and functionalization onto the surface in an oriented manner. Flow cells were functionalized as previously described (Porkolab et al., [2019]). Briefly, after EDC/NHS activation, flow cells were functionalized with streptactin protein in a first step. Flow cell 1 was used as control, while other flow cells were, in a second round of activation, functionalized with 100 μg/mL of a DC-SIGN S-ECD up to a final density ranging between 2,500 and 3,000 RU, via tag specific capture and linkage by amine coupling chemistry simultaneously. The compounds were injected in running buffer of 25 mM Tris pH 8, 150 mM NaCl, 4 mM CaCl2, 0.05% Tween 20 onto the surface at increasing concentrations with a flow rate of 30 μL/min. The ligand titration led to the determination of an apparent Kd value. The data was analyzed in BIAcore BIAevaluation software for direct interaction 1:1 calculation assuming that the Kd will reflect the affinity of the ligands (glycoclusters) for the DC-SIGN oriented surface used as a whole.

moDCs = assay: Internalization of biotinylated hexavalent clusters by moDCs (flow cytometry); format: cell-based, human
Protocol: For the internalization, the moDCs were incubated with clusters b6, c6, d6, and e6 for 1 h at 4°C, where after unbound ligands were washed away with ice-cold medium. Warm medium was added to the moDCs, and samples were taken at the indicated time points and put on ice. Upon staining the moDCs with fluorophore-conjugated streptavidin, we could measure the signal loss of the membrane via flow cytometry. To exclude ligand-receptor dissociation before internalization, the moDCs were fixed under gentle conditions, hereby inhibiting receptor-mediated endocytosis. On fixed moDCs the clusters remained at the surface, as no signal loss could be detected (Supplementary Figure 1D). […] The di-mannoside clusters (b6, c6, and d6) were internalized relatively fast, with a 50% uptake within 5 min (Figure 5B). The tri-mannoside cluster e6 however remained longer at the membrane surface and only a 25% uptake was seen after 30 min. Similar results were seen using a pH-sensitive fluorophore. In acidic environments, such as the endosomes and lysosomes, the fluorescence of this dye increases. Pre-complexed clusters mirrored the accelerated uptake of the di-mannoside clusters over the e6 cluster (Supplementary Figure 1E). Although the DC-SIGN mediated uptake mechanism is known (Cambi et al., [2009]), the initiation trigger for endocytosis upon DC-SIGN-ligand binding remains unclear. Recognition of the di-mannoside clusters could induce signaling leading to accelerated uptake, whereas the tri-mannoside cluster could trigger a different signaling pathway. Nonetheless, the clusters harboring the smaller mannosides are preferred. Although the binding affinity of the clusters ranged from 0.9 to 6.6 μM, the di-mannosides induce more rapid DC-SIGN internalization over the tri-mannosides, and can thus increase intracellular peptide concentrations more efficiently for further antigen processing and presentation.
Immature day 5 moDCs were harvested and washed with cold HBSS (Thermo Fischer), after which half of the moDCs were gently fixed for 20 min at RT with 1% PFA in PBS. Afterwards, 20 μM of the different biotinylated mannose-clusters in cold HBSS were added. The moDCs were incubated for 1 h on ice, and washed in cold HBSS. Subsequently, warm HBSS was added to the cells, and cells were incubated at 37°C in a shaking heating block. At the indicated time points, a sample of the cells was taken and put on ice. After the last time point, the cells were stained with Streptavidin-Alexa647 (Thermo Fisher), measured using flow cytometry (CyAn™ ADP with Summit™ Software), and further analyzed using FlowJo v10. The same procedure was used for internalization with pHrodo^TM Red Avidin (Thermo Fischer). The different biotinylated mannose-clusters were however incubated with pHrodo-Avidin (ratio 2:1) for 15 min at 37°C, prior to moDC exposure. The fluorescence upon internalization was measured using flow cytometry (BD LSRFortessa™ X-20 with FACSDiva Software), and further analyzed using FlowJo v10.

Row | Kd (DC-SIGN S-ECD) | SMILES | further results
1 | 2440 nM | CC(=O)N[C@@H](CCCCn1cc(CO[C@H]2O[C@H](CO[C@H]3O[C@H](CO)[C@@H](O)[C@H](O)[C@@H]3O)[C@@H](O)[C@H](O[C@H]3O[C@H](CO)[C@@H](O)[C@H](O)[C@@H]3O)[C@@H]2O)nn1)C(=O)NCC(=O)N[C@@H](CCCCn1cc(CO[C@H]2O[C@H](CO[C@H]3O[C@H](CO)[C@@H](O)[C@H](O)[C@@H]3O)[C@@H](O)[C@H](O[C@H]3O[C@H](CO)[C@@H](O)[C@H](O)[C@@H]3O)[C@@H]2O)nn1)C(=O)NCC(=O)N[C@@H](CCCCn1cc(CO[C@H]2O[C@H](CO[C@H]3O[C@H](CO)[C@@H](O)[C@H](O)[C@@H]3O)[C@@H](O)[C@H](O[C@H]3O[C@H](CO)[C@@H](O)[C@H](O)[C@@H]3O)[C@@H]2O)nn1)C(=O)NCC(=O)N[C@@H](CCCCN)C(N)=O [E3] | 
2 | 19500 ± 500 nM | CC(=O)N[C@@H](CCCCn1cc(CO[C@H]2O[C@H](CO)[C@@H](O)[C@H](O)[C@@H]2O[C@H]2O[C@H](CO)[C@@H](O)[C@H](O)[C@@H]2O)nn1)C(=O)NCC(=O)N[C@@H](CCCCn1cc(CO[C@H]2O[C@H](CO)[C@@H](O)[C@H](O)[C@@H]2O[C@H]2O[C@H](CO)[C@@H](O)[C@H](O)[C@@H]2O)nn1)C(=O)NCC(=O)N[C@@H](CCCCn1cc(CO[C@H]2O[C@H](CO)[C@@H](O)[C@H](O)[C@@H]2O[C@H]2O[C@H](CO)[C@@H](O)[C@H](O)[C@@H]2O)nn1)C(=O)NCC(=O)N[C@@H](CCCCN)C(N)=O [B3] | 
3 | 48700 ± 2570 nM | CC(=O)N[C@@H](CCCCn1cc(CO[C@H]2O[C@H](CO[C@H]3O[C@H](CO)[C@@H](O)[C@H](O)[C@@H]3O)[C@@H](O)[C@H](O)[C@@H]2O)nn1)C(=O)NCC(=O)N[C@@H](CCCCn1cc(CO[C@H]2O[C@H](CO[C@H]3O[C@H](CO)[C@@H](O)[C@H](O)[C@@H]3O)[C@@H](O)[C@H](O)[C@@H]2O)nn1)C(=O)NCC(=O)N[C@@H](CCCCn1cc(CO[C@H]2O[C@H](CO[C@H]3O[C@H](CO)[C@@H](O)[C@H](O)[C@@H]3O)[C@@H](O)[C@H](O)[C@@H]2O)nn1)C(=O)NCC(=O)N[C@@H](CCCCN)C(N)=O [D3] | 
4 | 1170 nM | CC(=O)N[C@@H](CCCCn1cc(CO[C@H]2O[C@H](CO)[C@@H](O)[C@H](O[C@H]3O[C@H](CO)[C@@H](O)[C@H](O)[C@@H]3O)[C@@H]2O)nn1)C(=O)N[C@@H](CCCCn1cc(CO[C@H]2O[C@H](CO)[C@@H](O)[C@H](O[C@H]3O[C@H](CO)[C@@H](O)[C@H](O)[C@@H]3O)[C@@H]2O)nn1)C(=O)N[C@@H](CCCCn1cc(CO[C@H]2O[C@H](CO)[C@@H](O)[C@H](O[C@H]3O[C@H](CO)[C@@H](O)[C@H](O)[C@@H]3O)[C@@H]2O)nn1)C(=O)N[C@@H](CCCCn1cc(CO[C@H]2O[C@H](CO)[C@@H](O)[C@H](O[C@H]3O[C@H](CO)[C@@H](O)[C@H](O)[C@@H]3O)[C@@H]2O)nn1)C(=O)N[C@@H](CCCCn1cc(CO[C@H]2O[C@H](CO)[C@@H](O)[C@H](O[C@H]3O[C@H](CO)[C@@H](O)[C@H](O)[C@@H]3O)[C@@H]2O)nn1)C(=O)N[C@@H](CCCCn1cc(CO[C@H]2O[C@H](CO)[C@@H](O)[C@H](O[C@H]3O[C@H](CO)[C@@H](O)[C@H](O)[C@@H]3O)[C@@H]2O)nn1)C(=O)NCC(=O)N[C@@H](CCCCN)C(N)=O [C6] | internalization by moDCs (loss of surface streptavidin signal) (moDCs; 20 μM cluster, live moDCs): rapidly internalized; internalization by moDCs (pHrodo-avidin fluorescence increase) (moDCs; clusters pre-complexed with pH-sensitive dye): internalized rapidly; uptake by immature moDCs (moDCs; within 5 min at 37°C, 20 μM cluster): 50%
5 |  | CC[C@H](NC(=O)[C@H](CC(=O)O)NC(=O)[C@H](CC(C)C)NC(=O)[C@H](CCCNC(=N)N)NC(=O)[C@H](CCC(N)=O)NC(=O)[C@H](C)NC(=O)[C@H](CCC(=O)O)NC(=O)[C@@H](NC(=O)[C@H](Cc1c[nH]c2ccccc12)NC(=O)[C@H](CCC(=O)O)NC(=O)[C@@H]1CCCN1C(=O)[C@H](Cc1ccc(O)cc1)NC(=O)[C@H](CC(C)C)NC(=O)[C@H](CCC(N)=O)NC(=O)[C@H](CCCNC(=N)N)NC(=O)[C@H](CC(N)=O)NC(=O)[C@H](C)NC(=O)[C@@H](NC(=O)[C@@H](NC(=O)[C@@H]1CCCN1C(=O)CNC(=O)[C@@H]1CCCN1C(=O)[C@H](CCC(=O)O)NC(=O)[C@H](CC(C)C)NC(=O)[C@H](Cc1ccc(O)cc1)NC(=O)[C@@H](NC(=O)[C@H](Cc1c[nH]cn1)NC(=O)[C@@H](NC(=O)[C@@H](NC(=O)[C@H](CCCCn1cc(CCC(=O)NCCCC[C@H](NC(=O)CNC(=O)[C@H](CCCCn2cc(CO[C@H]3O[C@H](CO)[C@@H](O)[C@H](O)[C@@H]3O[C@H]3O[C@H](CO)[C@@H](O)[C@H](O)[C@@H]3O)nn2)NC(=O)[C@H](CCCCn2cc(CO[C@H]3O[C@H](CO)[C@@H](O)[C@H](O)[C@@H]3O[C@H]3O[C@H](CO)[C@@H](O)[C@H](O)[C@@H]3O)nn2)NC(=O)[C@H](CCCCn2cc(CO[C@H]3O[C@H](CO)[C@@H](O)[C@H](O)[C@@H]3O[C@H]3O[C@H](CO)[C@@H](O)[C@H](O)[C@@H]3O)nn2)NC(=O)[C@H](CCCCn2cc(CO[C@H]3O[C@H](CO)[C@@H](O)[C@H](O)[C@@H]3O[C@H]3O[C@H](CO)[C@@H](O)[C@H](O)[C@@H]3O)nn2)NC(=O)[C@H](CCCCn2cc(CO[C@H]3O[C@H](CO)[C@@H](O)[C@H](O)[C@@H]3O[C@H]3O[C@H](CO)[C@@H](O)[C@H](O)[C@@H]3O)nn2)NC(=O)[C@H](CCCCn2cc(CO[C@H]3O[C@H](CO)[C@@H](O)[C@H](O)[C@@H]3O[C@H]3O[C@H](CO)[C@@H](O)[C@H](O)[C@@H]3O)nn2)NC(C)=O)C(N)=O)nn1)NC(C)=O)C(C)C)[C@@H](C)O)[C@@H](C)O)C(C)C)[C@@H](C)O)[C@@H](C)O)C(=O)N[C@@H](Cc1c[nH]c2ccccc12)C(=O)N[C@@H](CCCNC(=N)N)C(=O)NCC(=O)N[C@@H](CCCCN)C(N)=O [B6-gp100] | decrease of DC-SIGN affinity on conjugation to gp100 or gp100-TLR7L (factor) (DC-SIGN S-ECD; Kd-app of conjugate vs unconjugated cluster): about 10
